Active and inactive are the calls of the source. The calls are words filed in the database; no cut-off is given here.
Columns and labels:
A549 [1] = assay: Cytotoxicity against human A549 cells assessed as reduction in cell viability after 24 hrs by MTT assay; format: functional, cell-based; details: A549, 24 h
MDA-MB-231 = assay: Cytotoxicity against human MDA-MB-231 cells assessed as reduction in cell viability after 24 hrs by MTT assay; format: functional, cell-based; details: MDA-MB-231, 24 h
MCF7 = assay: Cytotoxicity against human MCF7 cells assessed as reduction in cell viability after 24 hrs by MTT assay; format: functional, cell-based; details: MCF7, 24 h
HeLa = assay: Cytotoxicity against human HeLa cells assessed as reduction in cell viability after 24 hrs by MTT assay; format: functional, cell-based
A549 [2] = assay: Cell cycle arrest in human A549 cells assessed as accumulation at subG1 phase at 4 uM after 24 hrs by propidium iodide staining based flow cytometry (reference value: 1.11%); format: functional
A549 [3] = assay: Inhibition of RAS/MEK/ERK signalling in human A549 cells assessed as decrease in phosphorylated ERK1/2 level at 4 uM after 24 hrs by Western blot analysis; format: cell-based
A549 [4] = assay: Inhibition of PI3K/Akt/mTOR signalling in human A549 cells assessed as downregulation of Akt expression at 4 uM after 24 hrs by Western blot analysis; format: cell-based
A549 [5] = assay: Inhibition of PI3K/Akt/mTOR signalling in human A549 cells assessed as downregulation of PI3K expression at 4 uM after 24 hrs by Western blot analysis; format: cell-based
A549 [6] = assay: Induction of autophagy in human A549 cells assessed as increase in Atg7 expression after 24 hrs by Western blot analysis; format: functional, cell-based
A549 [7] = assay: Cell cycle arrest in human A549 cells assessed as accumulation at G2/M phase at 4 uM after 24 hrs by propidium iodide staining based flow cytometry (reference value: 21.58%); format: functional
A549 [8] = assay: Cell cycle arrest in human A549 cells assessed as accumulation at G0/G1 phase at 4 uM after 24 hrs by propidium iodide staining based flow cytometry (reference value: 69.5%); format: functional
A549 [9] = assay: Inhibition of PI3K/Akt/mTOR signalling in human A549 cells assessed as downregulation of mTOR expression at 4 uM after 24 hrs by Western blot analysis; format: cell-based
A549 [10] = assay: Inhibition of RAS/MEK/ERK signalling in human A549 cells assessed as decrease in phosphorylated MEK1/2 level at 4 uM after 24 hrs by Western blot analysis; format: cell-based
A549 [11] = assay: Cell cycle arrest in human A549 cells assessed as accumulation at S phase at 4 uM after 24 hrs by propidium iodide staining based flow cytometry (reference value: 8.85%); format: functional
A549 [12] = assay: Induction of cell death in human A549 cells assessed as increase in LC3-2 expression after 24 hrs by Western blot analysis; format: functional, cell-based
A549 [13] = assay: Inhibition of PI3K/Akt/mTOR signalling in human A549 cells assessed as reduction in Akt phosphorylation at Ser-473 residue at 4 uM after 24 hrs by Western blot analysis; format: cell-based
A549 [14] = assay: Induction of cell death in human A549 cells assessed as LC3-mediated cytoplasmic vacuolation by Hoechst staining based assay; format: functional
A549 [15] = assay: Upregulation of PTEN expression in human A549 cells at 4 uM after 24 hrs by Cy-3 staining based immunoblot analysis; format: functional, cell-based
A549 [16] = assay: Cell cycle arrest in human A549 cells assessed as accumulation at G0/G1 phase at 10 uM after 24 hrs by propidium iodide staining based flow cytometry (reference value: 69.5%); format: functional
A549 [17] = assay: Cell cycle arrest in human A549 cells assessed as accumulation at subG1 phase at 10 uM after 24 hrs by propidium iodide staining based flow cytometry (reference value: 1.11%); format: functional
A549 [18] = assay: Cell cycle arrest in human A549 cells assessed as accumulation at G2/M phase at 10 uM after 24 hrs by propidium iodide staining based flow cytometry (reference value: 21.58%); format: functional
A549 [19] = assay: Cell cycle arrest in human A549 cells assessed as accumulation at S phase at 10 uM after 24 hrs by propidium iodide staining based flow cytometry (reference value: 8.85%); format: functional

SMILES	IC50 (A549 [1]) [µM]	IC50 (MDA-MB-231) [µM]	IC50 (MCF7) [µM]	IC50 (HeLa) [µM]	other results
OC1(C(F)(F)F)CS/C(=N\c2ccc(F)cc2)N1c1ccc(F)cc1 (centres undefined)	14.8	21.3	34.1	30.7	
OC1(C(F)(F)F)CS/C(=N\c2ccc(F)cc2)N1c1ccccc1 (centres undefined)	17.1	19.6	25.8	32.4	
OC1(C(F)(F)F)CS/C(=N\c2ccc(C(F)(F)F)cc2)N1CCc1ccccn1 (centres undefined)	12.8	20.9	25.3	21	
OC1(C(F)(F)F)CS/C(=N\c2ccccc2)N1CCc1c[nH]c2ccccc12 (centres undefined)	10.6	20.6	26.6	27.7	
OC1(C(F)(F)F)CS/C(=N\c2ccc(F)c(Cl)c2)N1c1ccccc1 (centres undefined)	16.8	19	22.9	19.9	
OC1(C(F)(F)F)CS/C(=N\c2ccc(Cl)c(C(F)(F)F)c2)N1CCc1ccccn1 (centres undefined)	6.02	19.6	11.3	7.12	
OC1(C(F)(F)F)CS/C(=N\c2cccc(C(F)(F)F)c2)N1c1cccc(C(F)(F)F)c1 (centres undefined)	2.84	3.32	6.69	3.57	Activity (A549 [2]): 3.81%; inhibition (A549 [3]): Active; inhibition (A549 [4]): Active; inhibition (A549 [5]): Active; Activity (A549 [6]): Active; Activity (A549 [7]): 8.15%; Activity (A549 [8]): 86.61%; inhibition (A549 [9]): Active; inhibition (A549 [10]): Active; Activity (A549 [11]): 1.71%; Activity (A549 [12]): Active; inhibition (A549 [13]): Active; Activity (A549 [14]): Active; Activity (A549 [15]): Active
OC1(C(F)(F)F)CS/C(=N\c2ccccc2)N1C1CCCCC1 (centres undefined)	13.8	22.5	30.1	28.2	
OC1(C(F)(F)F)CS/C(=N\c2ccccc2)N1Cc1cccs1 (centres undefined)	11.1	23.1	33.8	24.8	
O=c1cc(N2CCOCC2)oc2c(-c3ccccc3)cccc12 [LY-294002]	17.7	9.7	29.1	20.5	Activity (A549 [16]): 82.95%; Activity (A549 [17]): 5.15%; Activity (A549 [18]): 9.24%; Activity (A549 [19]): 3.24%
OC1(C(F)(F)F)CS/C(=N\c2ccccc2)N1C1CC1 (centres undefined)	15.1	22.7	29.2	24.6	
CCCN1/C(=N/c2ccccc2)SCC1(O)C(F)(F)F (centres undefined)	14.3	18.7	22.5	24.4	
OC1(C(F)(F)F)CS/C(=N\c2ccccc2)N1Cc1ccco1 (centres undefined)	8.26	21.6	29.4	24.8	
OC1(C(F)(F)F)CS/C(=N\c2ccc(Cl)c(C(F)(F)F)c2)N1Cc1ccco1 (centres undefined)	3.82	5.12	15.1	5.84	Activity (A549 [2]): 4.99%; inhibition (A549 [3]): Active; inhibition (A549 [4]): Active; inhibition (A549 [5]): Active; Activity (A549 [6]): Active; Activity (A549 [7]): 11.8%; Activity (A549 [8]): 79.77%; inhibition (A549 [9]): Active; inhibition (A549 [10]): Active; Activity (A549 [11]): 4.11%; Activity (A549 [12]): Active; inhibition (A549 [13]): Active; Activity (A549 [14]): Active; Activity (A549 [15]): Active
OC1(C(F)(F)F)CS/C(=N\c2ccc(Cl)c(C(F)(F)F)c2)N1Cc1cccs1 (centres undefined)	3.57	4.48	11.4	6.41	Activity (A549 [2]): 3.57%; inhibition (A549 [3]): Active; inhibition (A549 [4]): Active; inhibition (A549 [5]): Active; Activity (A549 [6]): Active; Activity (A549 [7]): 16.15%; Activity (A549 [8]): 75.3%; inhibition (A549 [9]): Active; inhibition (A549 [10]): Active; Activity (A549 [11]): 5.81%; Activity (A549 [12]): Active; inhibition (A549 [13]): Active; Activity (A549 [14]): Active; Activity (A549 [15]): Active
OC1(C(F)(F)F)CS/C(=N\c2ccc(Cl)c(C(F)(F)F)c2)N1CCN1CCOCC1 (centres undefined)	4.15	5.92	18.2	6.24	Activity (A549 [2]): 6.04%; inhibition (A549 [3]): Active; inhibition (A549 [4]): Active; inhibition (A549 [5]): Active; Activity (A549 [6]): Active; Activity (A549 [7]): 10.63%; Activity (A549 [8]): 81.78%; inhibition (A549 [9]): Active; inhibition (A549 [10]): Active; Activity (A549 [11]): 1.89%; Activity (A549 [12]): Active; inhibition (A549 [13]): Active; Activity (A549 [15]): Active
CC(C)(C)N1/C(=N/c2ccc(Cl)c(C(F)(F)F)c2)SCC1(O)C(F)(F)F (centres undefined)	3.26	4.03	32.3	5.54	Activity (A549 [2]): 8.63%; inhibition (A549 [3]): Active; inhibition (A549 [4]): Active; inhibition (A549 [5]): Active; Activity (A549 [6]): Active; Activity (A549 [7]): 6.79%; Activity (A549 [8]): 82.31%; inhibition (A549 [9]): Active; inhibition (A549 [10]): Active; Activity (A549 [11]): 3.05%; Activity (A549 [12]): Active; inhibition (A549 [13]): Active; Activity (A549 [15]): Active
OC1(C(F)(F)F)CS/C(=N\c2ccccc2)N1c1ccccc1 (centres undefined)	18.6	20.9	25	29.4	
COc1ccc(N2/C(=N/c3ccc(F)cc3)SCC2(O)C(F)(F)F)cc1 (centres undefined)	4.58	6.64	28.7	6.98	
OC1(C(F)(F)F)CS/C(=N\c2ccccc2)N1CCc1ccccn1 (centres undefined)	20.1	21.5	25.9	28.5	
OC1(C(F)(F)F)CS/C(=N\c2ccccc2)N1CCN1CCOCC1 (centres undefined)	21.2	23.8	37.4	26.1	
COc1ccc(N2/C(=N/c3ccc(C(F)(F)F)cc3)SCC2(O)C(F)(F)F)cc1 (centres undefined)	15.2	20.6	29.2	16.8	
OC1(C(F)(F)F)CS/C(=N\c2ccc(C(F)(F)F)cc2)N1Cc1ccco1 (centres undefined)	13.1	21.7	25.1	19.7	

Source: ChEMBL document CHEMBL3817727, “Fluorinated thiazolidinols cause cell death in A549 lung cancer cells via PI3K/AKT/mTOR and MAPK/ERK signalling pathways” (Medchemcomm, 2016)
